Test: Solubility of Compound X, Ph. Eur. 6 / USP 33 descriptive terms
Format: physicochemical
Source text: In this specification, we are adopting the definitions of solubility from the classification in the European Pharmacopeia 6th Edition and the United States Pharmacopeia 33 (Reference Tables: Description and Solubility):
Further increase in pH results in solubility decrease. […] The pH-dependent solubility profile of Compound X presents certain challenges to the development of pharmaceutical formulations, namely for its dissolution.

For `Fc1cc(F)c2c(c1)C[C@@H](n1c(CCNCc3ccccc3)c[nH]c1=S)CO2` [Compound X], the Solubility (N,N-methylpyrrolidone) was “sparingly soluble”, the Solubility (acetone) was “slightly soluble” and the Solubility (acetonitrile) was “very slightly soluble”. The Solubility (acidified acetonitrile) was “sparingly soluble”, the Solubility (acidified methanol) was “sparingly soluble” and the Solubility (acidified water (pH 1.2-2.0)) was “sparingly soluble”. For the same compound, the “Medium of maximum solubility” value (aqueous medium) was “HCl 0.01 (pH 2.0)”, the “pH dependence of solubility in aqueous medium” value (aqueous medium) was “decreases as the pH increases” and the Solubility (chloroform) was “very slightly soluble”. The Solubility (cyclohexane) was “insoluble”, the Solubility (dichloromethane) was “slightly soluble” and the Solubility (dimethyl sulfoxide) was “sparingly soluble”. The Solubility (dimethylformamide) was “sparingly soluble”, the Solubility (ethanol) was “practically insoluble” and the Solubility (ethyl acetate) was “very slightly soluble”. The Solubility (iso-octane) was “insoluble”, the Solubility (isopropanol) was “insoluble” and the Solubility (isopropyl acetate) was “very slightly soluble”. For the same compound, the Solubility (methanol) was “very slightly soluble”, the Solubility (methyl ethyl ketone) was “slightly soluble” and the Solubility (tetrahydrofuran) was “sparingly soluble”. For the same compound, the Solubility (toluene) was “very slightly soluble” and the Solubility (water) was “insoluble”.

From US20210169856A1, “FORMULATIONS COMPRISING DOPAMINE-B-HYDROXYLASE INHIBITORS AND METHODS FOR THEIR PREPARATION” (BIAL - PORTELA & CA, S.A., priority 2018, published 2021)
